Assay results published in patent publication US20040127447A1, “Augmentation of K+ channel expression using adenoviral vectors” (priority 2002, published 2004).
Where two headings read alike, the source gives them in different places. Ends that are not written are not given here.

Columns and labels:
[1] = tested on: DASMC EM; assay: DASMC membrane potential EM (current clamp, DiBAC4(3)); assay type: cell-based, human
Protocol: (§1) Current and voltage clamp technique, SMC isolation and pipette solutions were performed as previously described in Michelakis E D, et al. (2002) Circ Res. 90:1307-15. The response to O2, ETC inhibitors and the membrane permeable H2O2 analog, t-butyl hydrogen peroxide, were compared between DASMCs enzymatically dispersed from fresh DAs versus those maintained in tissue culture for 72 hours (either under normoxic or hypoxic conditions).
DASMC EM was measured both using patch clamp technique in current clamp mode and noninvasively with DiBAC4(3) (20 μM, bis-barbituric acid oxonol), a potentiometric dye that increases green fluorescence upon depolarization. DiBAC4 loaded cells or intact DA rings were stimulated with multi-photon excitation at 740 nm and emission was measured in the green range, 505-530 nm. DASMCs were studied after culture in normoxic or hypoxic environment for 4-5 days. The acute change in EM that occurred in response to 4-AP (10 mM), KCL (80 mM) or a switch in PO2 from 40 to 120 mmHg was measured.

[2] = tested on: human ductus arteriosus (DA) rings; assay: Human DA ring tension; settings: for constriction of fresh human DA rings: hypoxia, 4-AP 1-10 mM, IBTx 200 nM
Protocol: DAs excised from 26 neonates with hypoplastic left heart syndrome during the Norwood procedure (age 9±2 days, 12 female, arterial PO2˜40 mmHg) were usedDAs were transported in iced saline, maintained in hypoxia and used within 1 hour. Ring tension was recorded as previously described in Michelakis E, et al. (2000) Lancet 356:134-7.
Optimal passive ring tension was determined to be 1 g, as defined by the maximal constriction to 80 mM KCl. Tension was recorded using a force transducer connected to a MacLab A-D convertor (AD Instruments, Toronto, Canada). Tension was recorded from rings bubbled with 95% N2 and 5% CO2 in Krebs' solution, to mimic in utero conditions (PO2 40 mmHg, pH 7.4, pCO2 40-50 mmHg). Normoxia was created by bubbling with 20%O2 and 5% CO2 (balance N2) resulting in PO2 150 mmHg, pH 7.4, and PCO2 40 mmHg. Optimal resting tension was previously found to be 1000 mg, as described in Michelakis E, et al. (2000) Lancet 356:134-7. To exclude the contribution of several endothelial-derived vasoactive substances, the Krebs' solution also contained meclofenamate 17 μM to inhibit PGHS and L-N^G-nitroarginine-methylester (L-NAME) 10^−5 M to inhibit NOS.

[3] = tested on: DASMC K+ current (IK); assay: Whole-cell patch clamp of human DASMCs; assay type: cell-based; settings: for IK at potentials close to the resting EM (-30 mV) / whole cell K+ current (IK): fresh human DASMC
Protocol: as §1
Cells were voltage clamped at a holding potential of −70 mV and currents were evoked by 10 mV steps to +50 mV using test pulses of 200 ms duration. Data were recorded and analyzed using pCLAMP 6.02 software (Axon Instruments, Foster City, Calif.). Current density was calculated (pA/pF) and plotted against voltage.

[4] = tested on: PASMC K+ current (IK); assay: Whole-cell patch clamp of PASMCs; assay type: cell-based; settings: normoxic-saline rat PASMCs
Text: Fresh PASMC's were isolated from fourth division PA's by enzymatic dispersion and studied using conventional whole-cell patch-clamp technique at room temperature, as previously described in Archer S L, et al. (1998) J. Clin. Invest. 101:2319-30, and Michelakis E D, et al. (2001) Am. J. Physiol. Lung Cell Mol. Physiol. 280:L1138-47. All cells were voltage-clamped at a holding potential of −70 mV. Currents were evoked in stepwise fashion from −70 mV to +70 mV with test pulses of 200 ms. Whole-cell currents were divided by the capacitance of the cell, yielding current density. The pipette solution (intracellular) contained (mmol/L): KCl 134, KH2PO4 1.2, MgCl2 1.0, HEPES 5, pH 7.30, Na2ATP 5 and EGTA 5.

[5] = tested on: DASMC mitochondria; assay: Mitochondrial membrane potential in DASMCs (JC-1, TMRM); assay type: cell-based, human
Protocol: Mitochondrial membrane potential (Δψm) was measured using two independent and well-validated probes JC-1 and TMRM (tetramethyl rhodamine methyl ester), as previously described in Michelakis E D, et al. (2002) Circ Res. 90:1307-15.
First-passage cultured DASMC were loaded with either JC-1 (1 μM) or TMRM (20 nM) for 30 minutes (37° C.) at 37 C. Confocal images were obtained within 30 minutes using a Zeiss Axiovert 100M inverted microscope equipped with an Apochromat 40×1.2 water-corrected objective. Settings (amplifier gain, pin hole size and filter set) were kept constant between experiments.
[…]. JC-1 fluoresces in the red spectra in hyperpolarized mitochondria (high Δψm) and in the green spectra in depolarized mitochondria (low Δψm). KCl (40 mM) was used to clamp the plasmalemmal membrane potential in some experiments. […] TMRM binds the inner and outer aspects of the inner mitochondrial membrane and accumulates in the mitochondria at greater quantities than predicted by the Nernst equation. TMRM fluorescence red in proportion to ψm. A 488 nm Argon laser was used for excitation and the resultant red/green fluorescence was quantified in channels 1 and 2 using LP 560 nm and BP 505-530 nm filters, respectively. 8-bit images were collected with a laser loiter time of 4.48 μs/pixel. Pinholes yielded optical slices of 1 μm. Results are expressed as the ratio of red/green channel fluorescence.

[6] = tested on: human DA rings; assay: H2O2 production in DA rings (AmplexRed, lucigenin chemiluminescence)
Protocol: DA rings were loaded with lucigenin 5 μM and placed in a 2 ml heated cuvette at 37° C. Counts were recorded using a Packard 1900CA Liquid Scintillation Analyzer.
H2O2, was measured using a specific, fluorometric AmplexRed® assay, as previously described in Michelakis E D, et al. (2002 ) Circ Res. 90:1307-15. An independent, specific measure of the candidate redox mediator, H2O2, was made using the one-step, fluorometric Amplex Red (Molecular Probes, Eugene, Oreg.) assay. The assay detects H2O2 using 10-acetyl-3,7-dihydroxyphenoxazine (Amplex Red reagent) a stable probe that, in the presence of horseradish peroxidase (HRP), reacts with H2O2 with a 1:1 stoichiometry to produce the highly fluorescent substance, resorufin. The assay was calibrated (FIG. 15) and found to be linear over the range of 0.25 to 5.0 μM. Freshly harvested DA rings were placed in a normoxic or a hypoxic solution containing AmplexRed and, after 20 minutes, fluorescence was recorded (excitation 530 nm, emission 590 nm), see FIG. 15.

Compound: Nc1ccncc1 [4-AP, 4-aminopyridine]
- acute depolarization of ionically remodeled DASMCs ([1]; chronically normoxic, returned acutely to hypoxia, 4-AP 10 mM): loose their ability to depolarize
- constriction of fresh human DA rings [2]: significantly constricts
- IK at potentials close to the resting EM (-30 mV) [3]: significant decreases
- whole cell K+ current (IK) [3]: significantly inhibit
- IK of DASMC from chronically normoxic DAs ([3]; returned to hypoxic conditions): unresponsive
- IK in N-S PASMCs [4]: reversible inhibition

Compound: C=C(C)[C@H]1Cc2c(ccc3c2O[C@@H]2COc4cc(OC)c(OC)cc4[C@@H]2C3=O)O1 [rotenone]
- ψm in DASMCs [5]: depolarizes
- H2O2 production [6]: decreases
- phenylephrine constriction [2]: unaltered
- relaxation of chronically normoxic DA rings [2]: no longer causes relaxation
- relaxation of the O2-preconstricted DA [2]: relax
- IK acutely suppressed by O2 [3]: precisely restoring the current
- IK of DASMC from chronically normoxic DAs [3]: unresponsive

Compound: CC(C)(C)OO [t-butyl-H2O2, t-butyl hydrogen peroxide]
- EM of fresh hypoxic DASMCs ([1]; current clamp): depolarizes
- depolarizing response in chronically normoxic DASMCs ([1]; current clamp): lost
- IK in freshly dispersed DASMCs ([3]; voltage clamp): inhibits

Compound: antimycin
- phenylephrine constriction ([2]; DA rings): unaltered
- relaxation of the O2-preconstricted DA ([2]; normoxic DA rings): relax

Compound: iberiotoxin (QFTDVDCSVSKECWSVCKDLFGVDRGKCMGKKCRCYQ; ends and bridges not checked; cysteine pairing not given here; UniProt P24663 1-37, looked up) [IBTx]
- constriction of fresh human DA rings [2]: does not
- IK at potentials close to the resting EM (-30 mV) [3]: minimal inhibition
- whole cell K+ current (IK) [3]: significantly inhibit
